ChEMBL document CHEMBL6083193, “Advancing drug discovery: Thiadiazole derivatives as multifaceted agents in medicinal chemistry and pharmacology” (Bioorg Med Chem, 2024)

Experiments:
A549 [1] = test: Cytotoxicity against human A549 cells assessed as reduction in cell viability incubated for 24 hrs by MTT assay; format: functional, cell-based; settings: A549, 24 h
A549 [2] = test: Cytotoxicity against human A549 cells assessed as reduction in cell growth; format: functional, cell-based
A549 [3] = test: Cytotoxicity against human A549 cells by MTT assay; format: functional, cell-based
[4] = target: Epidermal growth factor receptor (Homo sapiens, UniProt P00533); test: Inhibition of EGFR (unknown origin)
Sequence of Epidermal growth factor receptor (P00533 whole entry): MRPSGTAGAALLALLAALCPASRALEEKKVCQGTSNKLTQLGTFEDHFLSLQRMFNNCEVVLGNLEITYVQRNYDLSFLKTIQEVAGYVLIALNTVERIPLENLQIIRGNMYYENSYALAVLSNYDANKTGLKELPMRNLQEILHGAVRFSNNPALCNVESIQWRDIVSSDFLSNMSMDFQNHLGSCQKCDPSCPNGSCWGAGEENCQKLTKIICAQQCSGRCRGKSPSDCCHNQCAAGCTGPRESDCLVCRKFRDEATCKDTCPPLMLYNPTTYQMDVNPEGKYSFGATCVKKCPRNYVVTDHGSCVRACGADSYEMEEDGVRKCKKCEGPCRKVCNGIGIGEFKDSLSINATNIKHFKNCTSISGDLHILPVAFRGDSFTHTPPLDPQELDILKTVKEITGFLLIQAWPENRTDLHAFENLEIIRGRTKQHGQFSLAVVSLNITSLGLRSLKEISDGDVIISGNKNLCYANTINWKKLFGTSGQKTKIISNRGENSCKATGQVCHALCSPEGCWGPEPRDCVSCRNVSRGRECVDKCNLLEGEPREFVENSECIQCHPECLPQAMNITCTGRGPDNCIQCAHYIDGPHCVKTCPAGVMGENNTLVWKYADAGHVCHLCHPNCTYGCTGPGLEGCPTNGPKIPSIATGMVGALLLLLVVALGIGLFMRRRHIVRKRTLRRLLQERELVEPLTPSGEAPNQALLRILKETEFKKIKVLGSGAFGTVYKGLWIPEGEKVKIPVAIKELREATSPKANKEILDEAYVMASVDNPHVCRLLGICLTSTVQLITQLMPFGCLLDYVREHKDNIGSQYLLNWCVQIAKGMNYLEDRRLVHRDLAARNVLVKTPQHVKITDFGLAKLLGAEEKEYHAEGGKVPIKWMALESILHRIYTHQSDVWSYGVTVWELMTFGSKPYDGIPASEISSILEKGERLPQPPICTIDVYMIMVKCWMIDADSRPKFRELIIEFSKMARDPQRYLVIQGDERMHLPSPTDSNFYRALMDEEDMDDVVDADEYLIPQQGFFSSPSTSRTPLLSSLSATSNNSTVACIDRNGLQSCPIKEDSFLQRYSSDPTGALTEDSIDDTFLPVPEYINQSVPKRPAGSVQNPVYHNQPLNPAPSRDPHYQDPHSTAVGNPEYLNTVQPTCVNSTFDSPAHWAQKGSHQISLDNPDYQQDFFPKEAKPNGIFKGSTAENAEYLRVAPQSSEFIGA

MCF7 [5] = test: Cytotoxicity against human MCF7 cells assessed as reduction in cell viability incubated for 24 hrs by MTT assay; format: functional, cell-based; settings: MCF7, 24 h
Trypanosoma brucei = test: Antiparasitic activity against blood stream form Trypanosoma brucei assessed as parasitic growth inhibition at 10 uM by resazurin dye based fluorescence analysis relative to control; format: functional; design: scale not given: the % may be the effect or the level left
A2780 [6] = test: Induction of apoptosis in human A2780 cells assessed as caspase3/7 activation; format: functional, cell-based
A2780 [7] = test: Cytotoxicity against human A2780 cells assessed as increase in LDH activity; format: functional, cell-based
A2780 [8] = test: Cytotoxicity against human A2780 cells assessed as reduction in cell viability incubated for 72 hrs by CCK-8 assay; format: functional, cell-based; settings: A2780, 72 h
MCF7 [9] = test: Anticancer activity against human MCF7 cells by MTT assay; format: functional, cell-based

SMILES	IC50 (A549 [1])	IC50 (A549 [2])	IC50 (MCF7 [5])	Activity (Trypanosoma brucei)	also measured
O=C(CSc1nnc(Nc2ccccc2)s1)N1N=C(c2ccccc2)CC1c1ccc([N+](=O)[O-])cc1 (configuration not stated)	1.54 µM	10 µM	15.9 µM		IC50 (A549 [3]): 48.3 µM; IC50 [4]: 0.002 µM
Cc1nc[nH]c1-c1nnc(Nc2ccccc2F)s1				64.81%	
O=C1C[C@H](n2ccsc2=S)[C@H]2CO[C@@H]1O2					IC50 (A2780 [6]): 1 µM; IC50 (A2780 [7]): 62 µM; IC50 (A2780 [8]): 47.8 µM; IC50 (MCF7 [9]): 0.11 µM
Nc1nsc(=S)n1[C@H]1CC(=O)[C@@H]2OC[C@H]1O2					IC50 (A2780 [6]): 15 µM; IC50 (A2780 [7]): 23.8 µM; IC50 (A2780 [8]): 50.2 µM
O=C(CSc1nnc(Nc2ccc(Cl)cc2)s1)N1N=C(c2ccccc2)CC1c1ccc([N+](=O)[O-])cc1 (configuration not stated)	8.49 µM	10 µM	67.2 µM		IC50 (A549 [3]): 11.9 µM
CNc1nnc(CCCSc2nnc(SCCCc3nnc(NC)s3)s2)s1				65.3%	
C=CCNc1nnc(SCC(=O)N2N=C(c3ccccc3)CC2c2ccc([N+](=O)[O-])cc2)s1 (configuration not stated)	5.18 µM	10 µM	35.7 µM		
c1ccc(Nc2nnc(CCCSc3nnc(CCCSc4nnc(Nc5ccccc5)s4)s3)s2)cc1				82.6%	
